Measurements from patent publication US10072262B2, “RIG-I ligands and methods for producing them” (RHEINISCHE FRIEDRICH-WILHELMS-UNIVERSITÄT BONN, priority 2012, dated 2018).

Molecular target: T1, RIG-I (Homo sapiens, UniProt O95786)
T1 construct: endogenous in cells
T1 sequence (O95786 1-925): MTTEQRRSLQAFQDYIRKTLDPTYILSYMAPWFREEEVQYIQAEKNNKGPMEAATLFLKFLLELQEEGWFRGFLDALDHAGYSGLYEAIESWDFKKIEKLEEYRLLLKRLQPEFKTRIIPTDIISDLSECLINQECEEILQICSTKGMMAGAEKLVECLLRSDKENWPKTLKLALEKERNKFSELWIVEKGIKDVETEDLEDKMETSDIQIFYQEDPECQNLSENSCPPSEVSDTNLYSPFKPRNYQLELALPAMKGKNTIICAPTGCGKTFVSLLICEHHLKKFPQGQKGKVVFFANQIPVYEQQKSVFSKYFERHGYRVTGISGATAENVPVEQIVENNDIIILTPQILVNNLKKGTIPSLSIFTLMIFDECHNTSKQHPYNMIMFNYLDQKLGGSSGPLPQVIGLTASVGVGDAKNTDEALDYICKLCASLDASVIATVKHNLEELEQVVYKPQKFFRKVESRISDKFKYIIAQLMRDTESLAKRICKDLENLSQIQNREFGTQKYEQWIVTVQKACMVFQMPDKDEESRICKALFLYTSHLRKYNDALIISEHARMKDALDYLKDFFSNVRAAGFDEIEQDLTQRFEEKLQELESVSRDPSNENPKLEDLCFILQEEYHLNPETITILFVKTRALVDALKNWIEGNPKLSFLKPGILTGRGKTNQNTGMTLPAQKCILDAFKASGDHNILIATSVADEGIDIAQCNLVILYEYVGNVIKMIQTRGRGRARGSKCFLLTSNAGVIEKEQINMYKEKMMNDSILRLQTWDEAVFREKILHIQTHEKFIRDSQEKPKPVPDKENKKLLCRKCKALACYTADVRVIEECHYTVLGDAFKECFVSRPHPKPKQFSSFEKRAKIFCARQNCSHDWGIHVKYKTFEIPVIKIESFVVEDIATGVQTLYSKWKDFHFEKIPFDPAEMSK
Assay: RIG-I stimulation: chloroquine-blocked PBMCs, duplex lipofection, IFNa ELISA at 20 h
Type: cell-based
Details: FIG. 7B titration
Protocol: A screen of 2′-O-methylations resolved positions to introduce RIG-I selectivity (FIG. 5). For the sense (A) and antisense (B) strand of OH-GFP2 a full 2′-O-methylation screen was performed. Each position was modified individually by 2′-O-methylation and used for stimulation of RIG-I, TLR7 or TLR8. For stimulation of RIG-I, peripheral blood mononuclear cells (PBMCs) were blocked with Chloroquine and stimulated by lipofection of the duplex. IFNa was measured 20 h post stimulation by ELISA. For TLR7 and TLR8 only the relevant single-strand was screened for stimulatory capacity and checked on unblocked PBMCs. The single-strands were transfected by complexation with poly-L-Arginine and 20 h post transfection for TLR7 activation IFNa, for TLR8 activation IL12p70 was measured by ELISA. […]
FIG. 6: (A) Methylations inert for RIG-I activation were combined in the antisense strand and the resulting duplex was used for stimulation of chloroquine-blocked PBMCs at a concentration of 0.8 μg/ml. IFNa was measured by ELISA at 20 h post stimulation. […]
FIG. 7: (A) PBMCs were blocked with Chloroquine and stimulated with duplexes at a concentration of 0.8 μg/ml. 20 h post stimulation IFNa was measured by ELISA. […] 20 h post stimulation IFNa was determined in the supernatant by ELISA. […]

3P-GFP2: ppp-GACGCUGACCCUGAAGUUCAUCUU / CUGCGACUGGGACUUCAAGUAGAA; unmodified triphosphate duplex (5'-triphosphate, chemistry not fully specified; one strand is listed 3' to 5')
IFNa corresponding to 100% (50 nM, chloroquine-blocked PBMCs, Lipofectamine, 20 h, 4 donors): 16044 pg/mL

s15 PTO/as3 PTO: G*A*C GCUGACCCUGAAmGUUCAUC U U / C U GmCGACUGGGACUU CAAGUAG*A*A; * = PTO, Nm = 2′-OCH3 (sense GACGCUGACCCUGAAGUUCAUCUU; antisense CUGCGACUGGGACUUCAAGUAGAA; phosphorothioate and 2'-O-methyl modifications, chemistry not fully specified; one strand is listed 3' to 5')
duplex immune activity (effect of 5′-PTO modification), in words (compared with s15/as3): maximum increase in activity
